Data set [1] is described as follows: Ester stability assay in buffer (RP-HPLC). It is filed as physicochemical. The conditions noted are these: for percentage of compound peak area present after 16 h of incubation, PBS: PBS buffer pH 7.4, 16 h; for percentage of compound peak area present after 16 h of incubation, PBS / percentage of compound peak area present after 16 h of incubation, Tris: room temperature, 1 mM compound; for hydrolytic stability in buffer (in words): PBS pH 7.4 and Tris pH 8.4, over 16 h; for percentage of compound peak area present after 16 h of incubation, Tris: Tris buffer pH 8.4, 16 h. The protocol: The prodrugs were evaluated for their stability in both PBS buffer at pH 7.4 and Tris buffer at pH 8.4. The compounds were dissolved in DMSO at a concentration of 40 mM and diluted with the respective buffer to a final concentration of 1 mM. Compounds were tested directly (t0) and subsequently every 2 h over a time period of 16 h by HPLC. Compounds were eluted from a Dr. Maisch ReproSil-Pur C18 column (4.6 × 250 mm, 10 μm particle size, Dr. Maisch, Ammerbuch-Entringen, Germany) with the following solvent system at a flow rate of 0.5 mL/min: solvent A, 0.1% trifluoroacetic acid in water/acetonitrile (95:5); solvent B, 0.1% trifluoroacetic acid in water/acetonitrile (5:95). Gradient elution was as follows: 100:0 (A/B) to 0:100 (A/B) over 8 min, 0:100 (A/B) for 1 min, then reversion back to 100:0 (A/B) over 1 min, 100:0 (A/B) for 2 min. The formation of the parent compound was evaluated and normalized by measuring the peak area at 214 nm and comparing it to the initial timepoint.
All prodrugs prepared were first tested for their inhibitory activity against NNMT using a biochemical enzymatic activity assay. […] Both these buffers and pHs have been used in the different biochemical and cellular assays described in this report. Compounds were dissolved in DMSO at a concentration of 40 mM and diluted with the respective buffer to a final concentration of 1 mM. Compound stability was then assessed by RP-HPLC directly (t0) and subsequently every 2 h over a time period of 16 h. […] Even for the rather labile methyl ester 12b, the TML group in 14b results in a decrease in hydrolysis of the methyl ester.

Data set [2] addresses T1, NNMT (Homo sapiens, UniProt P40261).
T1 sequence (P40261 1-264): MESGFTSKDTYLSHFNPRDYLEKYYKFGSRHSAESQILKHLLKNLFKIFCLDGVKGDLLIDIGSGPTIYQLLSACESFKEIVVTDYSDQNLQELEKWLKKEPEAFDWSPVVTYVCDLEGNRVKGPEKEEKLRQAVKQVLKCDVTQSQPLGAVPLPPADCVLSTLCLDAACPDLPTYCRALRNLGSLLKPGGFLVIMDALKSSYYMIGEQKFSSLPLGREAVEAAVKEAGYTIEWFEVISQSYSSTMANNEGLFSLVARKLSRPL
Kind of data set: Cellular MNA in HMEC-1 cells (Figure S1). It is filed as cell-based. More on the design: concentrations in endothelial HMEC-1 cells after 24-hour incubation; endogenous in cells; host or cells: HMEC-1 endothelial cells. The conditions noted are these: 10 µM, 24-hour incubation. The protocol:
The following are available online at https://www.mdpi.com/article/10.3390/biom11091357/s1, Figure S1: cellular MNA data in HMEc-1 cells treated with 10 µM reference inhibitors or prodrugs; ^1H and ^13C NMR spectra of compounds 3e, 4c–e, 8a, 11b–f, 12b–f, 13a–c, 13e, 14a–f.
Figure S1. 1-methylnicotinamide (MNA) concentrations in endothelial HMEC-1 cells after 24-hour incubation
with 10 µM of reference compounds 5-amino-methylquinolinium (5-MQ), 6-methylamino-nicotinamide (6-
MANA), parent compound GYZ-319 or prodrug compounds 12b-f and 14a-e. […]

For data set [3], the system named is pig liver esterase (PLE). Kind of data set: Esterase-mediated hydrolysis to the parent compound (RP-HPLC). The class given is in vitro ADME. The protocol:
The conversion of the prodrugs to the parent compound by esterases was evaluated using pig liver esterase (PLE, 18 U/mg, Sigma-Aldrich, St. Louis, MO, USA) in PBS at pH 7.4. Compounds were dissolved in DMSO at 40 mM, diluted to a final concentration of 2 mM with PBS, and added to an equal volume of a 10 mg/mL solution of PLE in PBS (pH 7.4), resulting in final concentrations of 2.5% DMSO, 1 mM compound, and 5 mg/mL PLE. At different time-points 50 µL aliquots were taken, added to 100 µL acetonitrile to precipitate the proteins, and centrifuged for 5 min at 10,000 rpm. The supernatant was subsequently analyzed by HPLC as described in Section 2.2 above.
The next step was to establish whether compounds 12e and 14e are converted to the parent compound in the presence of an esterase.

In data set [4] the test system is HSC-2 human oral cancer cell line. Description: MTT cell viability assay, HSC-2. The class given is cell-based. How it is done: (§1) HSC-2 human oral cancer cell line, T24 human bladder cancer cell line, and A549 human lung cancer line were cultured in DMEM/F12 medium and supplemented with 10% fetal bovine serum and 50 μg/mL gentamicin at 37 °C in a humidified 5% CO2 incubator. For each compound tested, powder was dissolved in DMSO at 100 mM concentration. This stock solution was then diluted in culture medium to final concentration values ranging between 1 µM and 100 µM. For each sample, DMSO was kept constant at 0.1% final concentration. The day before starting treatment, cells were seeded in 96-well plates, at a density of 2000 cells/well. Cells were allowed to attach overnight and then incubated with compounds at different concentrations, or with DMSO only, for 24, 48, and 72 h. All experiments were performed in triplicate.
(§2) Cell proliferation was determined using a colorimetric assay with 3-(4,5-dimethylthiazol-2-yl)-2,5-diphenyl tetrazolium bromide (MTT). The MTT assay measures the conversion of MTT to insoluble formazan by dehydrogenase enzymes of the intact mitochondria of living cells. Cell proliferation was evaluated by measuring the conversion of the tetrazolium salt MTT to formazan crystals upon treatment with compounds or DMSO only for 24, 48, and 72 h. Briefly, cells were incubated for 2 h at 37 °C with 100 µL fresh culture medium containing 5 µL of MTT reagent (5 mg/mL in PBS). The medium was removed and 200 µL isopropanol were added. The amount of formazan crystals formed correlated directly with the number of viable cells. The reaction product was quantified by measuring the absorbance at 540 nm using a plate reader. Experiments were repeated three times. Results were expressed as a percentage of the control (the control equals 100% and corresponds to the absorbance value of each sample at time zero) and presented as mean values ± standard deviation of three independent experiments performed in triplicate.
(In general: Formazan colour is commonly taken as a measure of viable cells.)

The test system of data set [5] is T24 human bladder cancer cell line. Description: MTT cell viability assay, T24. It is filed as cell-based. The protocol: as §1, §2
The test system of data set [6] is A549 human lung cancer line. Description: MTT cell viability assay, A549. It is filed as cell-based. How it is done: as §1, §2
The target in data set [7] is T1, NNMT. Description: 1-Methylnicotinamide (MNA) quantification in A549 cells (LC-MS). The conditions noted are these: A549 lung carcinoma cells; 0.1–100 µM; 24-h treatment (Figure 4).
Procedure: Human lung adenocarcinoma line (A549, ATCC, Manassas, VA, USA) was cultured according to the provider’s indications and seeded in 6-well format. […] After incubation, effluent samples were taken and frozen (−80 °C) for further MNA measurement. Cells also were collected, centrifuged (2 × 500 G/5 min.), and frozen both for the measurement of intracellular MNA and for BCA protein assay.
The quantification of 1-methylnicotinamide (MNA), nicotinamide (NA), nicotinic acid (NicA), 1-methyl-2-pyridone-5-carboxamide (Met-2Pyr), and 1-methyl-4-pyridone-5-carboxamide (Met-4Pyr) was performed by applying ultra-high pressure liquid chromatography coupled to tandem mass spectrometry (UPLC-MS) according to the methodology previously described with minor modifications [35]. A UPLC-MS system comprised of a UPLC Ultimate 3000 (Dionex, Thermo Scientific, Waltham, MA, USA) connected to a TSQ Quantum Ultra mass spectrometer (Thermo Scientific, Waltham, MA, USA) equipped with a heated electrospray ionization interface (HESI-II Probe, Waltham, MA, USA) was used. Chromatographic separation of analytes was carried out on an Aquasil C18 analytical column (4.6 mm × 150 mm, 5 mm; Thermo Scientific, Waltham, MA, USA) under isocratic elution using acetonitrile with 0.1% of formic acid (A) and 5 mM ammonium formate in water (B) as mobile phases delivered at the flow rate of 0.8 mL/min (A:B, 80:20, v/v). The cell pellet was resuspended in 60 µL of deionized water and 50 µL of suspension was transferred to a fresh test tube. An amount of 50 µL of effluent sample was used for the measurement of extracellular MNA. The internal standard (IS) containing MNA-d3 was added to each sample (5 µL) obtaining the final concentration of 500 ng/mL. After the sample mixing, the proteins were precipitated using 100 μL of acidified acetonitrile (0.1% of formic acid), and samples were mixed (10 min), cooled at 4 °C (15 min), and finally centrifuged (15,000× g, 15 min, 4 °C). A clear supernatant was transferred to a chromatographic vial and directly injected (5 µL) into UPLC-MS system. […] The concentration of MNA was calculated based on the calibration curve plotted for the analyte as the relationship between the peak area ratios of analyte/IS to the nominal concentration of the analyte. The concentration of analytes was normalized to milligram of proteins, which was assessed using a Pierce^TM BCA Protein Assay Kit (Thermo Fisher, Waltham, MA, USA) and a Synergy4 multiplate reader (BioTek, Winooski, VT, USA). […]
Using this assay, the levels of MNA produced by NNMT in an A549 lung carcinoma cell line can be quantified by means of a sensitive LC-MS method.
A short description of data set [8]: Aqueous solubility (observation). The class given is physicochemical.
The subject of data set [9] is human cancer cell lines. More on the design: method as in PMID 34424711. The conditions noted are these: range of human cancer cell lines; highest concentration tested 100 µM; cited from earlier work.

For `CC(=O)Oc1cc(C)cc(C)c1C(C)(C)CC(=O)N[C@@H](CCN(C/C=C/c1ccc(C#N)cc1)C[C@H]1O[C@@H](n2cnc3c(N)ncnc32)[C@H](O)[C@@H]1O)C(=O)O` [Compound 14a, (S)-2-(3-(2-acetoxy-4,6-dimethylphenyl)-3-methylbutanamido)-4-((((2R,3S,4R,5R)-5-(6-amino-9H-purin-9-yl)-3,4-dihydroxytetrahydrofuran-2-yl)methyl)((E)-3-(4-cyanophenyl)allyl)amino)butanoic acid], in data set [1], the “percentage of compound peak area present after 16 h of incubation, PBS” value is given as 99.10%; the “hydrolytic stability in buffer (in words)” value is on record as “most stable”; the “percentage of compound peak area present after 16 h of incubation, Tris” value was 93.97%. Further, the “cellular activity (MNA concentration) compared to parent compound” value in [2] is recorded as “not to improve the cellular activity of the parent compound”.

On to `CC(=O)Oc1cc(C)cc(C)c1C(C)(C)CC(=O)N[C@@H](CCN(C/C=C/c1ccc(C#N)cc1)C[C@H]1O[C@@H](n2cnc3c(N)ncnc32)[C@H](O)[C@@H]1O)C(=O)OC(C)C` [Compound 14e, Isopropyl-(S)-2-(3-(2-acetoxy-4,6-dimethylphenyl)-3-methylbutanamido)-4-((((2R,3S,4R,5R)-5-(6-amino-9H-purin-9-yl)-3,4-dihydroxytetrahydrofuran-2-yl)methyl)((E)-3-(4-cyanophenyl)allyl)amino)butanoate], for which the “percentage of compound peak area present after 16 h of incubation, PBS” value in data set [1] is reported as 91.13%. The “hydrolytic stability in buffer (in words)” value in data set [1] is recorded as “most stable”. For the same molecule, the “percentage of compound peak area present after 16 h of incubation, Tris” value in [1] is on record as 87.69%. For the same molecule, the “time to full conversion to the parent compound” value in [3] (5 mg/mL PLE, PBS pH 7.4, 1 mM compound) is given as at most 4 h. Also, the “hydrolysis in the absence of PLE” value in data set [3] (PBS pH 7.4, without PLE) is on record as “no hydrolysis was observed”. For the same molecule, the “effect on cell viability (MTT)” value in data set [4] (100 µM, 24, 48 and 72 h) was “time dependent reduction in cell viability”; in data set [4] (1 and 10 µM, 24, 48 and 72 h), “no effects”; in [5] (100 µM, 24, 48 and 72 h), “time dependent reduction in cell viability”; in [5] (1 and 10 µM, 24, 48 and 72 h), “no effects”; in data set [6] (100 µM, 24, 48 and 72 h), “time dependent reduction in cell viability”; in data set [6] (1 and 10 µM, 24, 48 and 72 h), “no effects”. Moreover, the “effect on cellular MNA levels” value in data set [7] is given as “even further enhanced”.

Regarding `CC(=O)Oc1cc(C)cc(C)c1C(C)(C)CC(=O)N[C@@H](CCN(C/C=C/c1ccc(C#N)cc1)C[C@H]1O[C@@H](n2cnc3c(N)ncnc32)[C@H](O)[C@@H]1O)C(=O)OCc1ccccc1` [Compound 14f, Benzyl-(S)-2-(3-(2-acetoxy-4,6-dimethylphenyl)-3-methylbutanamido)-4-((((2R,3S,4R,5R)-5-(6-amino-9H-purin-9-yl)-3,4-dihydroxytetrahydrofuran-2-yl)methyl)((E)-3-(4-cyanophenyl)allyl)amino)butanoate], the aqueous solubility entry in data set [8] is given as “poor aqueous solubility”.

As for `N#Cc1ccc(/C=C/CN(CC[C@H](N)C(=O)O)C[C@H]2O[C@@H](n3cnc4c(N)ncnc43)[C@H](O)[C@@H]2O)cc1` [GYZ-319], the “effect on cell viability (MTT)” value in data set [4] (1 and 10 µM, 24, 48 and 72 h) was “no effects”; in data set [5] (1 and 10 µM, 24, 48 and 72 h), “no effects”; in data set [6] (1 and 10 µM, 24, 48 and 72 h), “no effects”. In addition, the antiproliferative effects entry in data set [9] is “only showed significant antiproliferative effects at the highest concentration tested of 100 µM”. Further, the “effect on cellular MNA levels” value in [7] was “high concentrations of both 6-MANA and GYZ-319 are required to substantially decrease the levels of MNA”.

These data come from paper PMC8466754, “Esterase-Sensitive Prodrugs of a Potent Bisubstrate Inhibitor of Nicotinamide N-Methyltransferase (NNMT) Display Cellular Activity” (Biomolecules, 2021).
